According to PMC11141368, “Antioxidant, antibacterial, enzyme inhibition and fluorescence characteristics of unsymmetrical thiourea derivatives” (Heliyon, 2024):
Where “and” joins values, the source holds several entries; their conditions need not be identical. Equal values may be shown once.

Assays:
E. coli = experiment: Antibacterial agar well diffusion; assay type: cell-based, Escherichia coli (ATCC25922); settings: Escherichia coli, 24 h, 6.25 mg/mL per well, 37 °C
Text: (§1) The antibacterial assay was done for all compounds (1–6) as described in previous studies. The mean number of viable organisms per milliliter of stock suspensions containing Escherichia coli (ATCC25922), Pseudomonas aeruginosa (ATCC27853), Salmonella typhi (ATCC0650), and Staphylococcus aureus (NCTC25953) was uncovered using the surface viable counting method. Preparations of suspensions containing approximately 108–109 colony forming units (CFU) per milliliter were made. Aseptic nutritional agar was formulated and transferred onto petri dishes. Cultures of bacteria were uniformly distributed on agar surface using sterile brush sticks. Five wells, each with a diameter of 6 mm, were made in each plate using a sterile borer. Afterwards, a concentration of 6.25 mg/mL of each component was applied to separate wells. Cephradine, a readily accessible antibiotic, was employed as a reference standard at an equivalent concentration. Following sealing, the agar dishes were incubated at a controlled temperature of 37 °C for a period of 24 h. The zone of inhibition in the plates was determined, which represents the inhibition of bacterial growth. Each sample zone of inhibition diameter was evaluated, and the antibacterial effectiveness of each drug was quantified according to the mean diameter of the inhibition zone (in millimetres).

S. typhi = experiment: Antibacterial agar well diffusion; assay type: cell-based, Salmonella typhi (ATCC0650); settings: Salmonella enterica, TYPHI, 24 h, 6.25 mg/mL per well, 37 °C
Text: as §1

[1] = DPPH free radical scavenging assay; assay type: biochemical
Protocol: (§2) In accordance with the procedure described in the literature, the ABTS activity assay was applied to evaluate the free radical scavenging capabilities of the synthesized compounds (1–6). ABTS solution was prepared by mixing 7 mM ABTS and 2.45 mM potassium persulfate and was then placed for 16 h under dark at room temperature. A methanol dilution was performed on the solution to achieve an absorbance of 0.706 ± 0.001 at 734 nm before starting the assay. To quantify the assay, 3 mL of the ABTS solution has been added to different concentrations (ranging from 62.5 to 1000 μg/mL) of every compound (300 μL) that were dissolved in methanol. Then after 1 min of incubation, the absorbance was continuously measured for 5 min. To confirm precision, all experiments were conducted in triplicate. The antioxidant capacities of the compounds were assessed with gallic acid as a reference, and the ability to remove free radicals was calculated as a percentage for each compound employing Equation.1 as presented below. Additionally, the DPPH free radical scavenging method was employed to assess the antioxidant activity of compounds (1–6), in accordance with a widely recognized procedure documented in existing literature. Concentrations ranging from 62.5 to 1000 μg/mL of compounds (1–6), dissolved in methanol, were introduced into a 2 mL solution of DPPH (0.002 % in methanol). The resulting solutions were kept in the dark at room temperature for a duration of 30 min. The amount of light absorbed by the solutions was then determined using a UV/vis spectrophotometer at a wavelength of 517 nm. The investigations were performed three times, using the exact protocol described for the ABTS scavenging assay. Afterwards, the antioxidant capabilities of each molecule were assessed using calculation.(1) Scavengingactivity(%)=A−B/A×100
(§3) Where, A = absorbance of ABTS/DPPH and B = absorbance of solution containing ABTS/DPPH and test samples.

[2] = target: T1, acetylcholinesterase (AChE) (Electrophorus electricus, UniProt O42275); experiment: biochemical; settings: for inhibition at 62.5 µg/mL / inhibition at 125 µg/mL / inhibition at 250 µg/mL / inhibition at 500 µg/mL / inhibition at 1000 µg/mL: read-out: AChE Percent inhibition
T1 construct: The AChE was derived from the electric eel, while BChE was obtained from equineserum; from tissue; host or cells: electric eel (tissue not specified)
T1 sequence (O42275 24-633): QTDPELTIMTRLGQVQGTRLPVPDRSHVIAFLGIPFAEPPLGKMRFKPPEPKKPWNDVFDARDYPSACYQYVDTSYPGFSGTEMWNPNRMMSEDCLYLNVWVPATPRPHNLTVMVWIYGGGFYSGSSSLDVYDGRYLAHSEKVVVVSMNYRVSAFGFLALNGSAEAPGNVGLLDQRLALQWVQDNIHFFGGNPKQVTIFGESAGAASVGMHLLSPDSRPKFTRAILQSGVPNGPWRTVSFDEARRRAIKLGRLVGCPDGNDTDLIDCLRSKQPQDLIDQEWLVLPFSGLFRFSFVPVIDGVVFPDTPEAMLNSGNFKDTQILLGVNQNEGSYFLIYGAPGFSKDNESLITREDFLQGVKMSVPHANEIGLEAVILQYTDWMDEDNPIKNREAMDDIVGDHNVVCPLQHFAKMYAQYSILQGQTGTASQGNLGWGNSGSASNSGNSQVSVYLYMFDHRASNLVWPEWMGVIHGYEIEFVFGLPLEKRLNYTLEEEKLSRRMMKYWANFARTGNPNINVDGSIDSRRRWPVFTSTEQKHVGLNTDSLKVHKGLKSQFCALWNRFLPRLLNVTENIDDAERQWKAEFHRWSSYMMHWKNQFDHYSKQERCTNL
Protocol: (§4) This assay employed two enzymes, namely acetylcholinesterase (AChE) and butyryl cholinesterase (BChE). The AChE was derived from the electric eel, while BChE was obtained from equineserum. The synthesized compounds were dissolved in phosphate buffer (0.1 M, pH 8.0). The enzymes AChE (518 U/mg) and BChE (7–16 U/mg) were diluted in a 0.1 M phosphate buffer to achieve concentrations of 0.03 U/mL and 0.01 U/mL, respectively. Preparations of ATchI (0.5 mM), DTNB (0.2273 mM), and BTchI (0.5 mM) were made in distilled water and stored at a low temperature of 8 °C. […] The solution was heated to 30 °C for 15 min, followed by the gradual addition of the substrate. Absorbance of the heated sample at 412 nm was measured using a double beam spectrophotometer. […] The percentage activity (A) and inhibition of the enzyme were determined by applying the rate of absorption as a function of time (V=ΔAbs/Δt) using the following equation (Equation (2)).(2) %Inhibition=V/Vmax×100 Where V = enzyme inhibition activity of products and Vmax = enzyme activity without test of product.

[3] = target: T2, butyryl cholinesterase (BChE) (Equus caballus, UniProt P81908); experiment: Anticholinesterase assay (Elman's test), BChE; assay type: biochemical; settings: for inhibition at 62.5 µg/mL / inhibition at 125 µg/mL / inhibition at 250 µg/mL / inhibition at 500 µg/mL / inhibition at 1000 µg/mL: read-out: BChE Percent inhibition
T2 construct: The AChE was derived from the electric eel, while BChE was obtained from equineserum; from tissue; host or cells: equine serum
T2 sequence (P81908 whole entry): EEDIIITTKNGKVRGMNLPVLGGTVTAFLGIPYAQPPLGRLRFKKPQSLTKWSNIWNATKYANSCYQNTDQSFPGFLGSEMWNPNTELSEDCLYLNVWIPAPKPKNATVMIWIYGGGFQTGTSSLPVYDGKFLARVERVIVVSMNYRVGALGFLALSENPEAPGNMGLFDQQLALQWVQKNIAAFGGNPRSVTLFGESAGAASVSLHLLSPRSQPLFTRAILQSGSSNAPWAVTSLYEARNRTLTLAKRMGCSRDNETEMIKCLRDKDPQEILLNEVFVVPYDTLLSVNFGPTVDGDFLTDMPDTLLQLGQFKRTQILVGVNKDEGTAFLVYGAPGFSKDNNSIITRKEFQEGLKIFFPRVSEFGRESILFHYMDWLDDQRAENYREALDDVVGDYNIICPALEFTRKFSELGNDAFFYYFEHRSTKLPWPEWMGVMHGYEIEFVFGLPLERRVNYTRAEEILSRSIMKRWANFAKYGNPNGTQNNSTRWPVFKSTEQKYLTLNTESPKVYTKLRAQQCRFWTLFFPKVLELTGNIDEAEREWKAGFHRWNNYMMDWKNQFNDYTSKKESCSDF
Protocol: as §4

[4] = ABTS free radical scavenging assay; assay type: biochemical
Protocol: as §2, §3

S. flexenari = experiment: Antibacterial agar well diffusion; assay type: cell-based; settings: 24 h, 6.25 mg/mL per well, 37 °C
P. aeruginosa = experiment: Antibacterial agar well diffusion; assay type: cell-based, Pseudomonas aeruginosa (ATCC27853); settings: Pseudomonas aeruginosa, 24 h, 6.25 mg/mL per well, 37 °C
Text: as §1

| Compound | zone of inhibition at 6250 µg/mL (E. coli) [mm] | zone of inhibition at 6250 µg/mL (S. typhi) [mm] | DPPH IC50 [1] [µg/mL] | DPPH %inhibition ([1]; 62.5 μg/mL) [%] | DPPH %inhibition ([1]; 125 μg/mL) [%] | DPPH %inhibition ([1]; 250 μg/mL) [%] | DPPH %inhibition ([1]; 500 μg/mL) [%] | DPPH %inhibition ([1]; 1000 μg/mL) [%] | IC50 [2] | inhibition at 62.5 µg/mL [2] [%] | inhibition at 125 µg/mL [2] [%] | inhibition at 250 µg/mL [2] [%] | inhibition at 500 µg/mL [2] [%] | inhibition at 1000 µg/mL [2] [%] | inhibition at 62.5 µg/mL [3] [%] | inhibition at 125 µg/mL [3] [%] | inhibition at 250 µg/mL [3] [%] | inhibition at 500 µg/mL [3] [%] | inhibition at 1000 µg/mL [3] [%] | ABTS IC50 [4] [µg/mL] | further results |
| --- | --- | --- | --- | --- | --- | --- | --- | --- | --- | --- | --- | --- | --- | --- | --- | --- | --- | --- | --- | --- | --- |
| S=C(Nc1ccccn1)NC1CCCCC1 [Compound 1, 1-cyclohexyl-3-(pyridin-2-yl) thiourea] | 9.5 | 10 | 63.02 | 48.57 ± 2.03 | 54.32 ± 1.89 | 63.01 ± 1.65 | 75.63 ± 2.60 | 85.10 ± 1.45 | 115 µM and 117 µM | 62.44 ± 0.58 | 67.6 ± 1.73 | 74.3 ± 2.15 | 81.7 ± 1.34 | 88.6 ± 1.12 | 65.8 ± 1.5 | 71.6 ± 1.06 | 76.42 ± 0.43 | 84.2 ± 1.83 | 91.76 ± 0.71 | 67.08 | IC50 [3]: 96 µM; ABTS %inhibition ([4]; 62.5 μg/mL): 47.65 ± 1.74%; ABTS %inhibition ([4]; 125 μg/mL): 54.45 ± 0.96%; ABTS %inhibition ([4]; 250 μg/mL): 63.59 ± 2.50%; ABTS %inhibition ([4]; 500 μg/mL): 72.20 ± 1.90%; ABTS %inhibition ([4]; 1000 μg/mL): 84.81 ± 1.17%; zone of inhibition at 6250 µg/mL (S. flexenari): 8.5 mm; zone of inhibition at 6250 µg/mL (P. aeruginosa): 9 mm |
| Cc1cccnc1NC(=S)Nc1ccccc1 [Compound 5, 1-(3-methylpyridin-2-yl)-3-phenylthiourea] | 10.5 | 11.5 | 37.50 | 62.44 ± 0.58 | 67.56 ± 1.73 | 74.31 ± 2.15 | 81.65 ± 1.34 | 88.58 ± 1.12 | 1410 µM | 38.7 ± 0.68 | 44.7 ± 1.25 | 48 ± 0.75 | 56.3 ± 1.06 | 63.3 ± 0.98 | 31.9 ± 0.48 | 39 ± 0.48 | 47.9 ± 0.96 | 61.6 ± 1.34 | 69.6 ± 1.12 | 44.60 | ABTS %inhibition ([4]; 62.5 μg/mL): 67.80 ± 1.50%; ABTS %inhibition ([4]; 125 μg/mL): 72.56 ± 1.06%; ABTS %inhibition ([4]; 250 μg/mL): 77.42 ± 0.43%; ABTS %inhibition ([4]; 500 μg/mL): 85.23 ± 1.83%; ABTS %inhibition ([4]; 1000 μg/mL): 92.76 ± 0.71%; zone of inhibition at 6250 µg/mL (S. flexenari): 10.5 mm; zone of inhibition at 6250 µg/mL (P. aeruginosa): 9.5 mm |
| Cc1ccc(NC(=S)NC2CCCCC2)c(C)c1 [Compound 3, 1-cyclohexyl-3-(2,4-dimethylphenyl) thiourea] | 11 | 8.5 | 118.05 | 46.72 ± 2.13 | 51.88 ± 1.29 | 62.53 ± 1.11 | 71.19 ± 1.27 | 80.38 ± 1.10 | 548 µM | 43.7 ± 0.66 | 49.7 ± 0.35 | 53.1 ± 0.62 | 59.01 ± 0.42 | 65.5 ± 2.26 | 44.29 ± 0.43 | 50.23 ± 0.44 | 55.8 ± 1.07 | 61.87 ± 0.39 | 67.44 ± 0.09 | 115.07 | IC50 [3]: 468 µM; ABTS %inhibition ([4]; 62.5 μg/mL): 46.06 ± 1.86%; ABTS %inhibition ([4]; 250 μg/mL): 62.14 ± 1.30%; ABTS %inhibition ([4]; 500 μg/mL): 71.16 ± 2.10%; ABTS %inhibition ([4]; 1000 μg/mL): 80.11 ± 1.01%; zone of inhibition at 6250 µg/mL (S. flexenari): 10 mm; zone of inhibition at 6250 µg/mL (P. aeruginosa): 13.5 mm |
